From PubChem BioAssay (NCI)
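GI50 = concentration required for 50% inhibition of growth. TGI: concentration producing complete growth inhibition.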

Columns and labels:
Test in all cases: NCI-60 cell line screen, 384-well format
MDA-MB-435 melanoma = tested on: MDA-MB-435 melanoma
CCRF-CEM leukemia = tested on: CCRF-CEM leukemia
HCT-116 colon = tested on: HCT-116 colon
DU-145 prostate = tested on: DU-145 prostate
SF-268 CNS = tested on: SF-268 CNS
BT-549 breast = tested on: BT-549 breast
NCI-H522 lung = tested on: NCI-H522 lung
HOP-92 NSCLC = tested on: HOP-92 NSCLC
EKVX NSCLC = tested on: EKVX NSCLC
786-0 renal = tested on: 786-0 renal
A498 renal = tested on: A498 renal
HCC-2998 colon = tested on: HCC-2998 colon
COLO 205 colon = tested on: COLO 205 colon
MOLT-4 leukemia = tested on: MOLT-4 leukemia
SF-539 CNS = tested on: SF-539 CNS
U251 glioblastoma = tested on: U251 glioblastoma
NCI-H460 NSCLC = tested on: NCI-H460 NSCLC
UACC-257 melanoma = tested on: UACC-257 melanoma
HL-60(TB) leukemia = tested on: HL-60(TB) leukemia
OVCAR-4 ovarian = tested on: OVCAR-4 ovarian
MCF7 breast = tested on: MCF7 breast
OVCAR-8 ovarian = tested on: OVCAR-8 ovarian
NCI/ADR-RES ovarian = tested on: NCI/ADR-RES ovarian
SW-620 colon = tested on: SW-620 colon
T-47D breast = tested on: T-47D breast
ACHN renal = tested on: ACHN renal
K-562 leukemia = tested on: K-562 leukemia
MDA-MB-468 breast = tested on: MDA-MB-468 breast
MDA-MB-231 breast = tested on: MDA-MB-231 breast
NCI-H226 lung = tested on: NCI-H226 lung
SR leukemia = tested on: SR leukemia
UACC-62 melanoma = tested on: UACC-62 melanoma
SNB-75 CNS = tested on: SNB-75 CNS
TK-10 renal = tested on: TK-10 renal
HOP-62 NSCLC = tested on: HOP-62 NSCLC
NCI-H322M lung = tested on: NCI-H322M lung
LOX IMVI melanoma = tested on: LOX IMVI melanoma
RXF 393 renal = tested on: RXF 393 renal
CAKI-1 renal = tested on: CAKI-1 renal
SK-MEL-5 melanoma = tested on: SK-MEL-5 melanoma
SK-OV-3 ovarian = tested on: SK-OV-3 ovarian
SN12C renal = tested on: SN12C renal
RPMI-8226 leukemia = tested on: RPMI-8226 leukemia
SNB-19 CNS = tested on: SNB-19 CNS
OVCAR-3 ovarian = tested on: OVCAR-3 ovarian
A549 NSCLC = tested on: A549 NSCLC
UO-31 renal = tested on: UO-31 renal
SF-295 CNS = tested on: SF-295 CNS
HS 578T breast = tested on: HS 578T breast
NCI-H23 lung = tested on: NCI-H23 lung
MALME-3M melanoma = tested on: MALME-3M melanoma
HCT-15 colon = tested on: HCT-15 colon
KM12 colon = tested on: KM12 colon
PC-3 prostate = tested on: PC-3 prostate
SK-MEL-28 melanoma = tested on: SK-MEL-28 melanoma
IGROV1 ovarian = tested on: IGROV1 ovarian
M14 melanoma = tested on: M14 melanoma
HT29 colon = tested on: HT29 colon

With N#CC1(c2ccc(NC(=O)c3cccnc3NCc3ccncc3)cc2)CCCC1 the GI50 (MDA-MB-435 melanoma) was 14.5 µM, the TGI (MDA-MB-435 melanoma) was 28.2 µM and the GI50 (CCRF-CEM leukemia) was 4.22 µM. For the same compound, the TGI (CCRF-CEM leukemia) was 17.6 µM, the GI50 (HCT-116 colon) was 10.6 µM and the TGI (HCT-116 colon) was 22.4 µM. For the same compound, the GI50 (DU-145 prostate) was 12.3 µM, the TGI (DU-145 prostate) was 33.5 µM and the GI50 (SF-268 CNS) was 12.9 µM. It also gave a TGI (SF-268 CNS) of 27.2 µM, a GI50 (BT-549 breast) of 8.33 µM and a TGI (BT-549 breast) of 22.9 µM. The GI50 (NCI-H522 lung) was 10.5 µM, the TGI (NCI-H522 lung) was 22.5 µM and the GI50 (HOP-92 NSCLC) was 10.3 µM. It also gave a TGI (HOP-92 NSCLC) of 23.8 µM, a GI50 (EKVX NSCLC) of 6.32 µM and a TGI (EKVX NSCLC) of 25.8 µM. It also gave a GI50 ([…]-0 renal) of 4.39 µM, a TGI (786-0 renal) of 15.5 µM and a GI50 (A498 renal) of 7.95 µM. The TGI (A498 renal) was 20.5 µM, the GI50 (HCC-2998 colon) was 5.87 µM and the TGI (HCC-2998 colon) was 17.3 µM. It also gave a GI50 (COLO 205 colon) of 13.4 µM, a TGI (COLO 205 colon) of 37.6 µM and a GI50 (MOLT-4 leukemia) of 4.64 µM. For the same compound, the TGI (MOLT-4 leukemia) was 17.3 µM, the GI50 (SF-539 CNS) was 4.43 µM and the TGI (SF-539 CNS) was 19.2 µM. The GI50 (U251 glioblastoma) was 12.6 µM, the TGI (U251 glioblastoma) was 25.1 µM and the GI50 (NCI-H460 NSCLC) was 7.74 µM. For the same compound, the TGI (NCI-H460 NSCLC) was 20.3 µM, the GI50 (UACC-257 melanoma) was 10.4 µM and the TGI (UACC-257 melanoma) was 25.1 µM. For the same compound, the GI50 (HL-60(TB) leukemia) was 2.05 µM, the TGI (HL-60(TB) leukemia) was 3.76 µM and the GI50 (OVCAR-4 ovarian) was 11.7 µM. For the same compound, the TGI (OVCAR-4 ovarian) was 30.1 µM, the GI50 (MCF7 breast) was 5.9 µM and the TGI (MCF7 breast) was 21.2 µM. It also gave a GI50 (OVCAR-8 ovarian) of 11.1 µM, a TGI (OVCAR-8 ovarian) of 24.7 µM and a GI50 (NCI/ADR-RES ovarian) of 11 µM. It also gave a TGI (NCI/ADR-RES ovarian) of 27.2 µM, a GI50 (SW-620 colon) of 8.06 µM and a TGI (SW-620 colon) of 20 µM. For the same compound, the GI50 (T-47D breast) was 2.75 µM, the TGI (T-47D breast) was 14.5 µM and the GI50 (ACHN renal) was 13.7 µM. For the same compound, the TGI (ACHN renal) was 36.2 µM, the GI50 (K-562 leukemia) was 2.88 µM and the TGI (K-562 leukemia) was 12.2 µM. The GI50 (MDA-MB-468 breast) was 3.62 µM, the TGI (MDA-MB-468 breast) was 14.3 µM and the GI50 (MDA-MB-231 breast) was 4.96 µM. The TGI (MDA-MB-231 breast) was 20.3 µM, the GI50 (NCI-H226 lung) was 11 µM and the TGI (NCI-H226 lung) was 27.5 µM. For the same compound, the GI50 (SR leukemia) was 2.45 µM, the TGI (SR leukemia) was 4.9 µM and the GI50 (UACC-62 melanoma) was 10.9 µM. It also gave a TGI (UACC-62 melanoma) of 22.9 µM, a GI50 (SNB-75 CNS) of 7.08 µM and a TGI (SNB-75 CNS) of 20.7 µM. For the same compound, the GI50 (TK-10 renal) was 11.2 µM, the TGI (TK-10 renal) was 28.8 µM and the GI50 (HOP-62 NSCLC) was 11.2 µM. For the same compound, the TGI (HOP-62 NSCLC) was 23.7 µM, the GI50 (NCI-H322M lung) was 12.2 µM and the TGI (NCI-H322M lung) was 31.2 µM. The GI50 (LOX IMVI melanoma) was 13.3 µM, the TGI (LOX IMVI melanoma) was 26.1 µM and the GI50 (RXF 393 renal) was 1.84 µM. For the same compound, the TGI (RXF 393 renal) was 5.83 µM, the GI50 (CAKI-1 renal) was 11.7 µM and the TGI (CAKI-1 renal) was 25 µM. The GI50 (SK-MEL-5 melanoma) was 2.82 µM, the TGI (SK-MEL-5 melanoma) was 13 µM and the GI50 (SK-OV-3 ovarian) was 12.1 µM. The TGI (SK-OV-3 ovarian) was 24.6 µM, the GI50 (SN12C renal) was 7.37 µM and the TGI (SN12C renal) was 25.3 µM. It also gave a GI50 (RPMI-8226 leukemia) of 1.95 µM, a TGI (RPMI-8226 leukemia) of 5.66 µM and a GI50 (SNB-19 CNS) of 14.3 µM. For the same compound, the TGI (SNB-19 CNS) was 28.9 µM, the GI50 (OVCAR-3 ovarian) was 9.01 µM and the TGI (OVCAR-3 ovarian) was 21.7 µM. For the same compound, the GI50 (A549 NSCLC) was 12.1 µM, the TGI (A549 NSCLC) was 25.5 µM and the GI50 (UO-31 renal) was 12.6 µM. For the same compound, the TGI (UO-31 renal) was 25.2 µM, the GI50 (SF-295 CNS) was 9.76 µM and the TGI (SF-295 CNS) was 21.5 µM. The GI50 (HS 578T breast) was 3.38 µM, the TGI (HS 578T breast) was 15.2 µM and the GI50 (NCI-H23 lung) was 9.55 µM. It also gave a TGI (NCI-H23 lung) of 23.1 µM, a GI50 (MALME-3M melanoma) of 3.09 µM and a TGI (MALME-3M melanoma) of 13.2 µM. The GI50 (HCT-15 colon) was 3.17 µM, the TGI (HCT-15 colon) was 12.5 µM and the GI50 (KM12 colon) was 13 µM. The TGI (KM12 colon) was 26.5 µM, the GI50 (PC-3 prostate) was 9.47 µM and the TGI (PC-3 prostate) was 23.1 µM. The GI50 (SK-MEL-28 melanoma) was 13.8 µM, the TGI (SK-MEL-28 melanoma) was 40.6 µM and the GI50 (IGROV1 ovarian) was 13.7 µM. For the same compound, the TGI (IGROV1 ovarian) was 31 µM, the GI50 (M14 melanoma) was 12.6 µM and the TGI (M14 melanoma) was 30 µM. It also gave a GI50 (HT29 colon) of 3.99 µM and a TGI (HT29 colon) of 12.6 µM.
